# Reference: US6025390A, “Heteroaromatic pentadienoic acid derivatives useful as inhibitors of bone resorption” (SmithKline Beecham SpA, priority 1996, dated 2000)
# Target: Bafilomycin-Sensitive ATPase in Chicken Osteoclasts
# Test: Inhibition of bafilomycin-sensitive ATPase activity in purified membrane vesicles (Pi release, malachite green)
# Assay type: biochemical
# Conditions: chicken osteoclast membranes
# Experimental: Preparation of crude bone microsomes from calcium-starved egg-laying hens.
# Vesicles were prepared from medullar bone obtained from tibiae and femurs of egg-laying hens which were calcium-starved for at least 15 days. Briefly, bone fragments were scraped with a 24 scalpel blade, suspended in 40 ml of isolation medium (0.2M sucrose, 50 mM KCl, 10 mM Hepes, 1 mM EGTA, 2 mM dithiotheitrol, pH 7.4) and filtered through a 100 μm pore size nylon mesh. The whole procedure was performed at 4° C. After homogenisation in a potter (20 strokes) in 40 ml of isolation medium an initial centrifugation (6,500×gmax ×20 min) was performed to remove mitochondria and lysosomes. The supernatant was centrifuged at 100,000×gmax for 1 hr and the pellet was collected in 1 ml of isolation medium, divided into 200 μl aliquots, immediately frozen in liquid nitrogen and stored at […]. The protein content was determined using a Biorad colourimetric kit according to Bradford [M. Bradford, Anal. Biochem., 72, 248 (1976)]. For the proton transport assay, 5-10 μl of membranes were used.
# Purification of osteoclast membranes. 1 ml of crude microsomal vesicles prepared above were applied (about 0.2 ml per tube) on the top of a sucrose step-gradient consisting of 3.5 ml of 15%, 30% and 45% (w/w) sucrose in isolation medium and centrifuged at 280,000 gmax for 2 hours (SW 41 Ti rotor). After centrifugation the 30-45% sucrose interfaces were collected, diluted approx. 20-fold in isolation medium and pelletted at 100,000 gmax for 1 hour (SW 28 rotor). The pellet was then resuspended in 1 ml of isolation medium, aliquoted and frozen in liquid N2 and stored at -80° C. until used.
# Inhibition of bafilomycin-sensitive ATPase activity was assessed in purified membrane vesicles by measuring the release of inorganic phosphate (Pi) during 30 min of incubation at 37° C. in a 96-well plate either in the presence or in the absence of bafilomycin A1. The reaction medium contained 1 mM ATP, 10 mM HEPES-Tris pH 8, 50 MM KCl, 5 uM valinomycin, 5 uM nigericin, 1 mM CDTA-Tris, 100 uM ammonium molybdate, 0.2M sucrose and membranes (20 ug protein/ml). The reaction was initiated by MgSO4 (8-arm pipette) and stopped, after 30 min, by addition of 4 volumes of the malachite green reagent (96-arm pipette) prepared according to Chan [Anal. Biochem. 157, 375 (1986)]. Absorbance at 650 nm was measured after 2 min using a microplate reader. Results are expressed as μmol (Pi)×mg protein^-1 ×hour^-1 and, for each experiment, represent the mean±sem of triplicates.
row,IC50,SMILES
1,8.6 µM,"CO/C(=C\C=C\c1cc2ccccc2o1)C(=O)NC1CC(C)(C)NC(C)(C)C1 [Example 3, (2Z,4E)-5-(Benzofuran-2-yl)-2-methoxy-N-((2,2,6,6-tetramethyl)-piperidin-4-yl)-2,4-pentadienamide]"
2,11 µM,"CO/C(=C\C=C\c1cc2ccccc2o1)C(=O)NC1CC(C)(C)N(C)C(C)(C)C1 [Example 5, (2Z,4E)-5-(Benzofuran-2-yl)-2-methoxy-N[(1,2,2,6,6-pentamethyl)-piperidin-4-yl]-2,4-pentadienamide]"
3,0.5 µM,CO/C(=C\C=C\c1cc2cc(Cl)ccc2o1)C(=O)NC1CC(C)(C)N(C)C(C)(C)C1 [Example 8]
4,10 µM,"CCN(CC)CCCNC(=O)/C(=C/C=C/c1cc2cc(Cl)ccc2o1)OC [Example 9, (2Z,4E)-5-(5-Chlorobenzofuran-2-yl)-N-(3-diethylaminopropyl)-2-methoxy-2,4-pentadienamide]"
5,10.6 µM,"CO/C(=C\C=C\c1cc2ccccc2s1)C(=O)NC1CC(C)(C)N(C)C(C)(C)C1 [Example 12, (2Z,4E)-5-(Benzothiophen-2-yl)-2-methoxy-N-[(1,2,2,6,6-pentamethyl)-piperidin-4-yl]-2,4-pentadienamide]"

# System: osteoclast cultures
# Test: not given
# Conditions: cited from earlier work
row,SMILES,inhibition of bone resorption
1,CO/C1=C\C(C)=C\[C@@H](C)[C@@H](O)[C@@H](C)C/C(C)=C/C=C/[C@H](OC)[C@@H]([C@@H](C)[C@@H](O)[C@H](C)[C@@]2(O)C[C@@H](O)[C@H](C)[C@@H](C(C)C)O2)OC1=O [bafilomycin A1],able to inhibit bone resorption

# System: osteoclast proton pump
# Test: not given
# Conditions: avian osteoclast membrane vesicles, ATP-driven acidification; cited from earlier work
row,SMILES,inhibition of proton transport
1,CCN1C(=O)C=CC1=O [N-ethylmaleimide],inhibited
2,Cc1nc2c(OCc3ccccc3)cccn2c1CC#N [SCH 28080],not inhibited
3,CO/C1=C\C(C)=C\[C@@H](C)[C@@H](O)[C@@H](C)C/C(C)=C/C=C/[C@H](OC)[C@@H]([C@@H](C)[C@@H](O)[C@H](C)[C@@]2(O)C[C@@H](O)[C@H](C)[C@@H](C(C)C)O2)OC1=O [bafilomycin A1],inhibited
4,COc1ccc2[nH]c([S+]([O-])Cc3ncc(C)c(OC)c3C)nc2c1 (stereo not drawn) [omeprazole],not inhibited
5,C[C@@H]1O[C@@H](O[C@H]2C[C@@H](O)[C@]3(CO)[C@H]4[C@H](O)C[C@]5(C)[C@@H](C6=CC(=O)OC6)CC[C@]5(O)[C@@H]4CC[C@]3(O)C2)[C@H](O)[C@H](O)[C@H]1O [ouabain],not inhibited
6,[Na+].[Na+].[Na+].[O]=[V]([O-])([O-])[O-] [sodium orthovanadate],not inhibited
